In PMC7693203 (Epilepsia, 2020):
Read-outs that look alike come from different tables or passages of the source.

Assays:
[1] = molecular target: CYP3A4 (Homo sapiens, UniProt P08684); conditions: result in words, cited from earlier work
[2] = result in words; cited from earlier work
[3] = tested on: UGT1A9; conditions: in vitro; result in words; cited from earlier work
[4] = molecular target: CYP2C19 (Homo sapiens, UniProt P33261); test: clinical; conditions: in vivo, 750 mg
Chain of CYP2C19 (P33261 whole entry): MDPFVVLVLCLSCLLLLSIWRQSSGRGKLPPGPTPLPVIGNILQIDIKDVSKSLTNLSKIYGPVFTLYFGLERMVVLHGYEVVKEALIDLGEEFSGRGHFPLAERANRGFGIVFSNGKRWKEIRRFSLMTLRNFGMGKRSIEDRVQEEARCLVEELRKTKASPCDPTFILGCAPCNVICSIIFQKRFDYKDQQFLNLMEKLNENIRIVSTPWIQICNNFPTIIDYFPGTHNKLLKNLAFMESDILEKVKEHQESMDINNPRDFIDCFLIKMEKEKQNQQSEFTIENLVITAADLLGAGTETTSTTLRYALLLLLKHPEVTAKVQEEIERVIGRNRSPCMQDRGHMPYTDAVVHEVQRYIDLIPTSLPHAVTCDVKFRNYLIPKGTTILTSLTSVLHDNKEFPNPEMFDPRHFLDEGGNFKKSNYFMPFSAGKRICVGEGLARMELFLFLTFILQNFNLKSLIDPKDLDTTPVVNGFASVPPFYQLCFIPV

Chain of CYP3A4 (P08684 whole entry): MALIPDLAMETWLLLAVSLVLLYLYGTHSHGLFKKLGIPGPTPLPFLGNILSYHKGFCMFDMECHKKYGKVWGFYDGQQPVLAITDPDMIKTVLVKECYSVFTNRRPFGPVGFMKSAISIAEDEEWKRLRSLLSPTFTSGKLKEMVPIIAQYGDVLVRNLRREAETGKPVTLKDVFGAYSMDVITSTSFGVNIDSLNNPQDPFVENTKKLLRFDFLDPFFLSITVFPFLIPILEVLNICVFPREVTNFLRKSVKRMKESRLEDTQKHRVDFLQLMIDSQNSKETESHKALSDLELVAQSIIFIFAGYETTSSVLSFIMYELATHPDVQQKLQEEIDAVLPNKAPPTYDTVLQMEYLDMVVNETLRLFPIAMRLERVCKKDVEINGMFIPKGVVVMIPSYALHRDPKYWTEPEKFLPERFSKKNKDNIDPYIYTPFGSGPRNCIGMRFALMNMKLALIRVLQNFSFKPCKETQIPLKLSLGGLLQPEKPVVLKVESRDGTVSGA

Structure (SMILES): C=C(C)[C@@H]1CCC(C)=C[C@H]1c1c(O)cc(CCCCC)cc1O [CBD, cannabidiol]
- inhibition of CYP3A4 ([1]; human liver microsomes): potently inhibits
- inhibition of CYP3A4 ([1]; in vitro data): potent inhibitor
- PPB when VPA and CBD are combined in vitro [2]: not affected
- inhibition of UGT1A9 [3]: potently inhibits
- half-life [4]: 51.2 h
